# Source: US8063065B2, “Azaindazole compounds as CCR1 receptor antagonists” (Boehringer Ingelheim International GmbH, priority 2008, dated 2011)
# Target: T1, CCR1 (Homo sapiens, UniProt P32246)
# T1 sequence (P32246 1-355): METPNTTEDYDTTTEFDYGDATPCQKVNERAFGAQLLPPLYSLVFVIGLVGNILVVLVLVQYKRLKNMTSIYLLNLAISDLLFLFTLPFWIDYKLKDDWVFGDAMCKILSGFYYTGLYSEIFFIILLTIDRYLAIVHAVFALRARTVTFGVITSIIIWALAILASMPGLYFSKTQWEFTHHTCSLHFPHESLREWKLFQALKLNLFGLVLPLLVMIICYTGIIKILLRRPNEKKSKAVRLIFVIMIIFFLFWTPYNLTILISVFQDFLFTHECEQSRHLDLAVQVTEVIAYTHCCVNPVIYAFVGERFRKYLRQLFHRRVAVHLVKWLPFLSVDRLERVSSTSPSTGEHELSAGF
# Test: Method A: calcium flux in CCR1 transfected cells (Fluo-4 NW, FLIPR TETRA), block of the CCR1/MIP-1α interaction
# Type: cell-based
# Details: Method A: Fluo-4 NW, MIP-1 alpha at EC80
# Description: Compounds are assessed for the ability to block the interaction of CCR1 and MIP-1α in a functional cellular assay measuring calcium flux in CCR1 transfected cells.
# Method A: Non-adherent cells purchased from Chemicon Corporation (HTS005C), stably expressing recombinant CCR1 and G-alpha-16 are grown in RPMI 1640 medium (Mediatech 10-080-CM) supplemented with 10% heat-inactivated FBS, 0.4 mg/mL Geneticin and penicillin/streptomycin. On the day of the assay, the cells are transferred to a beaker and dye-loaded in bulk using a Fluo-4 NW Calcium Assay Kit with probenecid (Invitrogen F36205) at 0.8E6 cells/mL for 1 hour at room temperature. After 1 hour, they are seeded in a 384-well tissue culture-treated plate at a density of 20,000 cells/well. Appropriately diluted test compound is added to the well to achieve a top concentration of 3,000 nM (diluted 4-fold with 10 doses total). The final concentration of DMSO is 1%. The buffer is HBSS (Invitrogen 14025) with 20 mM HEPES at pH 7.4. The cells are allowed to incubate 1 hour in the dark at room temperature. The plates are transferred to the FLIPR TETRA where MIP-1 alpha in 1% BSA is added at the EC80 final concentration. Wells+/−MIP-1 alpha containing diluted DMSO instead of compound serve as the controls. Intracellular calcium flux is recorded on the FLIPR TETRA, using excitation at 470/495 nm and emission at 515/575 nm. Data are analyzed using Activity Base software.
row,IC50,SMILES
1,22 nM,"NC(=O)CNS(=O)(=O)c1ccc(CNC(=O)c2cncc3c2cnn3-c2ccc(F)cc2)cc1 [1-(4-Fluorophenyl)-1H-pyrazolo[3,4-c]pyridine-4-carboxylic acid 4-(carbamoylmethyl-sulfamoyl)-benzylamide]"
2,3 nM,"CC(C)NS(=O)(=O)Cc1ccc(CNC(=O)c2cncc3c2cnn3-c2ccc(F)cc2)cc1 [1-(4-Fluorophenyl)-1H-pyrazolo[3,4-c]pyridine-4-carboxylic acid 4-(isopropylsulfamoyl-methyl)-benzylamide]"
3,2 nM,"CN(C1CCNCC1)S(=O)(=O)c1ccc(CNC(=O)c2cncc3c2cnn3-c2ccc(F)cc2)cc1 [1-(4-Fluorophenyl)-1H-pyrazolo[3,4-c]pyridine-4-carboxylic acid 4-(methyl-piperidin-4-yl-sulfamoyl)-benzylamide]"
4,2 nM,"O=C(NCc1ccc(S(=O)(=O)N2CCOCC2)cc1)c1cncc2c1cnn2-c1ccc(F)cc1 [1-(4-Fluorophenyl)-1H-pyrazolo[3,4-c]pyridine-4-carboxylic acid 4-(morpholine-4-sulfonyl)-benzylamide]"
5,20 nM,"O=C(NCc1ccc(CS(=O)(=O)N2CCOCC2)cc1)c1cncc2c1cnn2-c1ccc(F)cc1 [1-(4-Fluorophenyl)-1H-pyrazolo[3,4-c]pyridine-4-carboxylic acid 4-(morpholine-4-sulfonylmethyl)-benzylamide]"
6,6 nM,"O=C(NCc1ccc(CS(=O)(=O)N2CCCCC2)cc1)c1cncc2c1cnn2-c1ccc(F)cc1 [1-(4-Fluorophenyl)-1H-pyrazolo[3,4-c]pyridine-4-carboxylic acid 4-(piperidine-1-sulfonylmethyl)-benzylamide]"
7,1 nM,"CN(CCO)S(=O)(=O)c1ccc(CNC(=O)c2cncc3c2cnn3-c2ccc(F)cc2)cc1 [1-(4-Fluorophenyl)-1H-pyrazolo[3,4-c]pyridine-4-carboxylic acid 4-[(2-hydroxy-ethyl)-methyl-sulfamoyl]-benzylamide]"
8,5 nM,"CN1CCC(N(C)S(=O)(=O)c2ccc(CNC(=O)c3cncc4c3cnn4-c3ccc(F)cc3)cc2)CC1 [1-(4-Fluorophenyl)-1H-pyrazolo[3,4-c]pyridine-4-carboxylic acid 4-[methyl-(1-methyl-piperidin-4-yl)-sulfamoyl]-benzylamide]"
9,2 nM,"CN(C1CCOCC1)S(=O)(=O)c1ccc(CNC(=O)c2cncc3c2cnn3-c2ccc(F)cc2)cc1 [1-(4-Fluorophenyl)-1H-pyrazolo[3,4-c]pyridine-4-carboxylic acid 4-[methyl-(tetrahydropyran-4-yl)-sulfamoyl]-benzylamide]"
10,11 nM,"O=C(NCc1ccc(CS(=O)(=O)NC2CCCCC2)cc1)c1cncc2c1cnn2-c1ccc(F)cc1 [1-(4-Fluorophenyl)-1H-pyrazolo[3,4-c]pyridine-4-carboxylic acid 4-cyclohexylsulfamoylmethyl-benzylamide]"
11,10 nM,"COc1cc(S(C)(=O)=O)ccc1CNC(=O)c1cncc2c1cnn2-c1ccc(F)cc1 [1-(4-Fluorophenyl)-1H-pyrazolo[3,4-c]pyridine-4-carboxylic acid 4-methanesulfonyl-2-methoxy-benzylamide]"
12,4 nM,"COc1cc(CNC(=O)c2cncc3c2cnn3-c2ccc(F)cc2)ccc1S(C)(=O)=O [1-(4-Fluorophenyl)-1H-pyrazolo[3,4-c]pyridine-4-carboxylic acid 4-methanesulfonyl-3-methoxy-benzylamide]"
13,7 nM,"CS(=O)(=O)Nc1ccc(CNC(=O)c2cncc3c2cnn3-c2ccc(F)cc2)cc1 [1-(4-Fluorophenyl)-1H-pyrazolo[3,4-c]pyridine-4-carboxylic acid 4-methanesulfonylamino-benzylamide]"
14,12 nM,"CNS(=O)(=O)c1cc(CNC(=O)c2cncc3c2cnn3-c2ccc(F)cc2)ccc1OC [1-(4-Fluorophenyl)-1H-pyrazolo[3,4-c]pyridine-4-carboxylic acid 4-methoxy-3-methylsulfamoyl-benzylamide]"
15,33 nM,"CN1CCC(N(C)S(=O)(=O)Cc2ccc(CNC(=O)c3cncc4c3cnn4-c3ccc(F)cc3)cc2)CC1 [1-(4-Fluorophenyl)-1H-pyrazolo[3,4-c]pyridine-4-carboxylic acid 4-{[methyl-(1-methyl-piperidin-4-yl)-sulfamoyl]-methyl}-benzylamide]"

# Continued, compound first:
row,SMILES,IC50
1,"CNS(=O)(=O)c1ccc(CNC(=O)c2cncc3c2cnn3-c2ccc(F)cc2)cc1OC [1-(4-Fluorophenyl)-1H-pyrazolo[3,4-c]pyridine-4-carboxylic acid 3-methoxy-4-methylsulfamoyl-benzylamide]",3 nM
2,"CC(C)(CO)NS(=O)(=O)c1ccc(CNC(=O)c2cncc3c2cnn3-c2ccc(F)cc2)cc1 [1-(4-Fluorophenyl)-1H-pyrazolo[3,4-c]pyridine-4-carboxylic acid 4-(2-hydroxy-1,1-dimethyl-ethylsulfamoyl)-benzylamide]",0.9 nM
3,"CC(CO)NS(=O)(=O)c1ccc(CNC(=O)c2cncc3c2cnn3-c2ccc(F)cc2)cc1 (stereo not drawn) [1-(4-Fluorophenyl)-1H-pyrazolo[3,4-c]pyridine-4-carboxylic acid 4-(2-hydroxy-1-methyl-ethylsulfamoyl)-benzylamide]",2 nM
4,"O=C(NCc1ccc(S(=O)(=O)NCCO)cc1)c1cncc2c1cnn2-c1ccc(F)cc1 [1-(4-Fluorophenyl)-1H-pyrazolo[3,4-c]pyridine-4-carboxylic acid 4-(2-hydroxy-ethylsulfamoyl)-benzylamide]",1 nM
5,"CC(O)CNS(=O)(=O)c1ccc(CNC(=O)c2cncc3c2cnn3-c2ccc(F)cc2)cc1 (stereo not drawn) [1-(4-Fluorophenyl)-1H-pyrazolo[3,4-c]pyridine-4-carboxylic acid 4-(2-hydroxy-propylsulfamoyl)-benzylamide]",2 nM
6,"O=C(NCc1ccc(S(=O)(=O)N2CCC(O)C2)cc1)c1cncc2c1cnn2-c1ccc(F)cc1 (stereo not drawn) [1-(4-Fluorophenyl)-1H-pyrazolo[3,4-c]pyridine-4-carboxylic acid 4-(3-hydroxy-pyrrolidine-1-sulfonyl)-benzylamide]",0.9 nM
7,"O=C1CN(S(=O)(=O)c2ccc(CNC(=O)c3cncc4c3cnn4-c3ccc(F)cc3)cc2)CCN1 [1-(4-Fluorophenyl)-1H-pyrazolo[3,4-c]pyridine-4-carboxylic acid 4-(3-oxo-piperazine-1-sulfonyl)-benzylamide]",3 nM
8,"NC1CCN(S(=O)(=O)c2ccc(CNC(=O)c3cncc4c3cnn4-c3ccc(F)cc3)cc2)CC1 [1-(4-Fluorophenyl)-1H-pyrazolo[3,4-c]pyridine-4-carboxylic acid 4-(4-amino-piperidine-1-sulfonyl)-benzylamide]",0.3 nM
9,"CN(C)C1CCN(S(=O)(=O)c2ccc(CNC(=O)c3cncc4c3cnn4-c3ccc(F)cc3)cc2)CC1 [1-(4-Fluorophenyl)-1H-pyrazolo[3,4-c]pyridine-4-carboxylic acid 4-(4-dimethylamino-piperidine-1-sulfonyl)-benzylamide]",3 nM
10,"O=C(NCc1ccc(S(=O)(=O)N2CCC(O)CC2)cc1)c1cncc2c1cnn2-c1ccc(F)cc1 [1-(4-Fluorophenyl)-1H-pyrazolo[3,4-c]pyridine-4-carboxylic acid 4-(4-hydroxy-piperidine-1-sulfonyl)-benzylamide]",2 nM
11,"COC1CCN(S(=O)(=O)c2ccc(CNC(=O)c3cncc4c3cnn4-c3ccc(F)cc3)cc2)CC1 [1-(4-Fluorophenyl)-1H-pyrazolo[3,4-c]pyridine-4-carboxylic acid 4-(4-methoxy-piperidine-1-sulfonyl)-benzylamide]",0.7 nM
12,"CN1CCN(S(=O)(=O)c2ccc(CNC(=O)c3cncc4c3cnn4-c3ccc(F)cc3)cc2)CC1 [1-(4-Fluorophenyl)-1H-pyrazolo[3,4-c]pyridine-4-carboxylic acid 4-(4-methyl-piperazine-1-sulfonyl)-benzylamide]",1 nM
13,"CN1CCN(S(=O)(=O)Cc2ccc(CNC(=O)c3cncc4c3cnn4-c3ccc(F)cc3)cc2)CC1 [1-(4-Fluorophenyl)-1H-pyrazolo[3,4-c]pyridine-4-carboxylic acid 4-(4-methyl-piperazine-1-sulfonylmethyl)-benzylamide]",39 nM
14,"C[C@H](CO)NS(=O)(=O)c1ccc(CNC(=O)c2cncc3c2cnn3-c2ccc(F)cc2)cc1 [1-(4-Fluorophenyl)-1H-pyrazolo[3,4-c]pyridine-4-carboxylic acid 4-((R)-2-hydroxy-1-methyl-ethylsulfamoyl)-benzylamide]",2 nM
15,"C[C@@H](CO)NS(=O)(=O)c1ccc(CNC(=O)c2cncc3c2cnn3-c2ccc(F)cc2)cc1 [1-(4-Fluorophenyl)-1H-pyrazolo[3,4-c]pyridine-4-carboxylic acid 4-((S)-2-hydroxy-1-methyl-ethylsulfamoyl)-benzylamide]",2 nM
